Measurements as given in patent publication EP0818744A2, “Process for selecting candidate drug compounds” (Proteus Molecular Design Limited, priority 1996, dated 1998).
Where two headings read alike, the source gives them in different places. Non-standard residues stand in square brackets, D forms with d. Residues, ends and D or L forms follow the SMILES beside them. *: point of attachment. dPhe(4-Br) = N[C@H](Cc1ccc(Br)cc1)C(=O)O; Agmatine = N=C(N)NCCCCN*

Molecular target: thrombin (Homo sapiens, UniProt P00734)
Assay: colorimetric microplate assay with synthetic peptide substrates, inhibition of thrombin
Assay type: biochemical
Description: The compounds were tested for inhibition of thrombin and trypsin using a colorimetric microplate assay with synthetic peptide substrates as described by Tapparelli, J. Biol. Chem. 268:4734 (1993). […]

[1] = values not in parentheses (purified compounds, error less than 10%), '-' = not active, read-out: Ki Thrombin

Row | SMILES | Ki [1] [µM] | Ki (most active compound, read-out: Ki) [µM]
1 | NC(N)=NCCCCNC(=O)[C@@H]1CCCN1C(=O)[C@H](N)Cc1ccccc1 [Compound A2B1] (H-[dF]-Pro-Agmatine) | 0.12 | –
2 | NCCCCCNC(=O)[C@@H]1CCCN1C(=O)[C@H](N)Cc1ccccc1 [Compound A2B9] | 0.69 | –
3 | N=C(N)NCCCCNC(=O)[C@@H]1CCCN1C(=O)[C@H](N)Cc1ccc(Br)cc1 [Compound A3B1] (H-[dPhe(4-Br)]-Pro-Agmatine) | – | 0.041
